In ChEMBL document CHEMBL5725691, “Bromodomain inhibitors” (2018):
pIC50: −log10 of the molar value.

biological target: Bromodomain-containing protein 4 (Homo sapiens, UniProt O60885); experiment: His-tagged BRD4 was cloned, expressed and purified to homogeneity. […] BRD4 binding and inhibition was assessed by monitoring the interaction of biotinylated H4-tetraacetyl peptide (AnaSpec, H4K5/8/12/16(Ac), biotin-labeled) with the target using the AlphaScreen technology (Life Technologies). […] After 20 min incubation at room temp, Alpha streptavidin donor beads and Nickel Chelate acceptor beads were added to a final concentration of 5 μg/mL.

SMILES | pIC50
CCS(=O)(=O)Nc1ncc(Oc2ccc(F)cc2F)c(-c2cc(OC)c(=O)n(C)c2)n1 | > 6.30
Cc1cc(-c2cc(OCc3ccccc3Cl)cc(S(C)(=O)=O)c2)cn(C)c1=O | > 6.30
Cc1c(-c2cc(NS(C)(=O)=O)ccc2Oc2ccc(F)cc2F)cn(C)c(=O)c1C | > 6.30
Cc1cc(-c2cn(CS(C)(=O)=O)c(=O)cc2Oc2ccc(F)cc2F)cn(CC2CC2)c1=O | > 6.30

Next, values leading:

pIC50 | SMILES
> 6.30 | CCS(=O)(=O)c1ccc(OCC2CC2)c(-c2cn(C)c(=O)c3c2OCC(=O)N3)c1
> 6.30 | Cn1cc(-c2cc(S(C)(=O)=O)ccc2OCC2CC2)c2cc(C(F)(F)F)ccc2c1=O
> 6.30 | CCCOc1ccc(S(C)(=O)=O)cc1-c1cn(C)c(=O)c2cnc(-c3cnn(C)c3)nc12
> 6.30 | CCS(=O)(=O)c1ccc(NCC2CC2)c(-c2cc(Cl)c(=O)n(C)c2)c1
